Laboratory results taken from patent publication US8389555B2, “Medicaments” (Motac Neuroscience Limited, priority 2007, dated 2013).

How the values were obtained:
[1] = target: T1, recombinant human D2(short) dopamine receptor (Homo sapiens, UniProt P14416); experiment: Dopamine D2S receptor binding assay ([3H]spiperone, CHO cell membranes); conditions: human D2S receptors in CHO cells, 0.2 nM [3H]spiperone, mean ± SEM; read-out: Affinity Ki (D2)
T1 construct: expressed in transfected cells; host or cells: CHO-D2S cells (per Hayes et al. 1992)
T1 sequence (P14416 1-414 isoform P14416-2): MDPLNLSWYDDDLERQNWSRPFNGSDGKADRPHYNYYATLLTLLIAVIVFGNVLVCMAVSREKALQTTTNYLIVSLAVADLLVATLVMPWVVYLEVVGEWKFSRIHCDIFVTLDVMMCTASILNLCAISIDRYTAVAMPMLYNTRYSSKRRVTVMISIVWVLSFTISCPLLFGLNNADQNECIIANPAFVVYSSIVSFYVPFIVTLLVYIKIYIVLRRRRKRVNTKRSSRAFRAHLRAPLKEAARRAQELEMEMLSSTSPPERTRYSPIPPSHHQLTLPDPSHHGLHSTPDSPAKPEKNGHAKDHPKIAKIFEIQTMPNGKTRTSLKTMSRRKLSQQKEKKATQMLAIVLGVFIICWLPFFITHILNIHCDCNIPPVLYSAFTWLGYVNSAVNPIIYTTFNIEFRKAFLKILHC
Method: (§1) Compounds synthesized in Examples A, B, C and D were assayed to test their affinity for dopamine D3 and D2 receptors.
(§2) METHODS: Dopamine D2S and D3 Receptor Binding Assays
CHO-D2S cells, expressing the recombinant human D2(short) dopamine receptor gene, (Hayes, G. et al., J. Mol. Endocrinol. 1992, 6, 920-926) were grown in Dulbecco's modified Eagle's medium/nutrient mixture F12 1:1 mixture supplemented with 2 mM glutamine, 10% fetal bovine serum, and 10 μl·ml^−1 penicillin/streptomycin in an atmosphere of 5% CO2 at 37° C. (Gibco™, Karlsruhe, Germany).
(§3) Human D2S- and D3 receptors expressing cell lines were grown to confluence. The medium was removed, and the cells were washed with 10 ml PBS buffer (140 mM NaCl, 3 mM KCl, 1.5 mM KH2PO4, 8 mM Na2HPO4, pH 7.4) at 4° C. After removing the wash buffer, the cells were scraped from the flasks into 15 ml of ice-cold media, and centrifuged at 3,000 rpm for 10 minutes at 4° C. After centrifugation the medium was removed and the […] resuspended in ice-cold Tris-HCl buffer containing 5 mM MgCl2, pH 7.4 and disrupted with a Polytron and centrifuged at 20,000 rpm, for 30 minutes at 4° C. The pellet was resuspended by sonication in ice-cold Tris-HCl buffer (containing 5 mM MgCl2, pH 7.4), membrane aliquots were stored at −70° C. Determination of membrane protein was carried out by the method of Bradford (Bradford, M. M. Anal Biochem 1976, 72, 248-54).
(§4) Cell membranes containing human D2S and D3 receptors from CHO cells were thawed, rehomogenized with sonication at 4° C. in Tris-HCl, pH 7.4 containing 120 mM NaCl, 5 mM KCl, 2 mM CaCl2 and 1 mM MgCl2 (incubation buffer), and incubated with 0.2 nM [^3H]spiperone (106 Ci·mmol^−1, Amersham Biosciences, Freiburg, Germany), and drug diluted in incubation buffer. Non-specific binding was determined in the presence of 10 μM BP 897 ((Wermuth, C. G. et al. in Chem. Abstr. (Eur. Pat. 0779284, 1997)). Incubations were run at 25° C. for 120 min, and terminated by rapid filtration through PerkinElmer GF/B glass fibre filters (PerkinElmer Life Sciences, Rodgau, Germany) coated in 0.3% polyethylenimine (Sigma-Aldrich, Taufkirchen, Germany) using an Inotech cell harvester (Inotech AG, Dottikon, Switzerland). Unbound radioligand was removed with four washes of 1 ml of ice-cold 50 mM Tris-HCl buffer, pH 7.4, containing 120 mM NaCl. The filters were soaked in 9 ml Beta plate scint scintillator and counted using a PerkinElmer MicroBeta®Trilux scintillation counter (PerkinElmer Life Sciences). Competition binding data were analyzed by the software GraphPad Prism™ (2000, version 3.02, San Diego, Calif., USA), using non-linear least squares fit. For detailed screening the compounds have been tested at seven concentrations in triplicate carrying out three to five separate binding experiments for human dopamine D2S and for human dopamine D3 receptors and expressed as mean±standard error of the mean (SEM). Ki values were calculated from the IC50 values according to Cheng-Prusoff equation (Cheng, Y. C., Prusoff, W. H. Biochem. Pharmacol. 1973, 22, 3099-3108.).

[2] = target: T2, human dopamine D3 receptors (Homo sapiens, UniProt P35462); experiment: Dopamine D3 receptor binding assay ([3H]spiperone, CHO cell membranes); conditions: for Ki: human D3 receptors in CHO cells, 0.2 nM [3H]spiperone, mean ± SEM, read-out: Affinity Ki (D3); for Selectivity Ki(D2)/Ki(D3): ratio of Ki(D2) to Ki(D3)
T2 construct: expressed in transfected cells
T2 sequence (P35462 whole entry): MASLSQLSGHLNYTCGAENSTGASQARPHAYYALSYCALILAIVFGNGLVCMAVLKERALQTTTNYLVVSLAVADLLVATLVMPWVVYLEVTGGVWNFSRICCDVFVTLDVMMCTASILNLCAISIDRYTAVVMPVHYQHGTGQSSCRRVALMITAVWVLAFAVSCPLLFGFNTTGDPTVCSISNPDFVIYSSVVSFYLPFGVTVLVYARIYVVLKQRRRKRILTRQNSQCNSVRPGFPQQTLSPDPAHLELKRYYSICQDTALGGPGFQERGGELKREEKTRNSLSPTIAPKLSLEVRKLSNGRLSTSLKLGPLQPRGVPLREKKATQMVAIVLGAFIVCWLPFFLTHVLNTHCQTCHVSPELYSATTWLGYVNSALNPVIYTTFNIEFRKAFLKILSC
Method: as §1, §2
Human D3 receptors stably expressed in CHO cells were used as described by Sokoloff et al. (Sokoloff, P. et al., Eur. J. Pharmacol. 1992, 225, 331-337). The cell line was cultured in Dulbecco's modified Eagle's medium supplemented with 2 mM glutamine, and 10% dialyzed fetal bovine serum, and were grown in an atmosphere of 5% CO2 at 37° C. (Gibco™).
as §3, §4

Row | SMILES | Ki [1] | Ki [2] | Selectivity Ki(D2)/Ki(D3) [2]
1 | O=C(NCCCCNC1CCc2ncsc2C1)c1cc2ccccc2s1 (stereo not drawn) [Compound 10, Benzo[b]thiophene-2-carboxylic acid [4-(4,5,6,7-tetrahydro-benzothiazol-6-ylamino)-butyl]-amide] | 23.4 ± 1.22 µM | 0.292 ± 0.041 µM | 80
2 | CCN(CCCCNC(=O)c1ccc2ncsc2c1)C1CCc2ncsc2C1 (stereo not drawn) [Compound 14, Benzothiazole-6-carboxylic acid {4-[ethyl-(4,5,6,7-tetrahydro-benzothiazol-6-yl)-amino]-butyl}-amide] | 2.1 ± 0.327 µM | 0.00561 ± 0.0003 µM | 375
3 | CCCN(CCCCNC(=O)c1ccc2ncsc2c1)C1CCc2ncsc2C1 (stereo not drawn) [Compound 15] | 0.347 ± 0.133 µM | 0.00065 ± 9e-05 µM | 531
4 | CCCN(CCCCNC(=O)C=Cc1ccccc1)C1CCc2ncsc2C1 (stereo not drawn) [Compound 16, N-{4-[Propyl-(4,5,6,7-tetrahydro-benzothiazol-6-yl)-amino]-butyl}-cinnamoylamide] | 4.01 ± 0.383 µM | 0.00811 ± 0.00123 µM | 495
5 | CCCN(CCCCNC(=O)C=Cc1ccc(Cl)cc1Cl)C1CCc2ncsc2C1 (stereo not drawn) [Compound 17, 2,4-Dichloro-N-{4-[propyl-(4,5,6,7-tetrahydro-benzothiazol-6-yl)-amino]-butyl}-cinnamoylamide] | 0.445 ± 0.055 µM | 0.00241 ± 0.001 µM | 184
6 | CCCN(CCCCNC(=O)C=Cc1ccc(F)cc1)C1CCc2ncsc2C1 (stereo not drawn) [Compound 18, 4-Fluoro-N-{4-[propyl-(4,5,6,7-tetrahydro-benzothiazol-6-yl)-amino]-butyl}-cinnamoylamide] | 0.842 ± 0.035 µM | 0.00057 ± 4e-05 µM | 1479
7 | CCCN(CCCCNC(=O)c1cnc(-c2ccc(Cl)cc2)s1)C1CCc2ncsc2C1 (stereo not drawn) [Compound 19, 2-(4-Chloro-phenyl)-thiazole-5-carboxylic acid {4-[propyl-(4,5,6,7-tetrahydro-benzothiazol-6-yl)-amino]-butyl}-amide] | 2.52 ± 0.144 µM | 0.083 ± 0.002 µM | 30
8 | CCCN(CCCCNC(=O)C1CCCCC1)C1CCc2ncsc2C1 (stereo not drawn) [Compound 20, Cyclohexanecarboxylic acid {4-[propyl-(4,5,6,7-tetrahydro-benzothiazol-6-yl)-amino]-butyl}-amide] | 1.53 ± 0.297 µM | 0.00262 ± 0.00016 µM | 582
9 | CCCN(CCCCNC(=O)N1CCCCC1)C1CCc2ncsc2C1 (stereo not drawn) [Compound 21, Piperidine-1-carboxylic acid {4-[propyl-(4,5,6,7-tetrahydro-benzothiazol-6-yl)-amino]-butyl}-amide] | 7.44 ± 2.29 µM | 0.00646 ± 0.00325 µM | 1152
10 | CCCN(CCCCNC(=O)NC1CCCCC1)C1CCc2ncsc2C1 (stereo not drawn) [Compound 22, 1-Cyclohexyl-3-{4-[propyl-(4,5,6,7-tetrahydro-benzothiazol-6-yl)-amino]-butyl}-urea] | 4.87 ± 1.05 µM | 0.00297 ± 0.00123 µM | 1642
11 | CCCN(CCCCNC(=O)C1CCc2ccccc2C1)C1CCc2ncsc2C1 (stereo not drawn) [Compound 23, 1,2,3,4-Tetrahydro-naphthalene-2-carboxylic acid {4-[propyl-(4,5,6,7-tetrahydro-benzothiazol-6-yl)-amino]-butyl}-amide] | 2.17 ± 0.566 µM | 0.00172 ± 0.00022 µM | 1262
12 | CCCN(CCCCNC(=O)C1Cc2ccccc2C1)C1CCc2ncsc2C1 (stereo not drawn) [Compound 26, Indane-2-carboxylic acid-{4-[propyl-(4,5,6,7-tetrahydrobenzothiazol-6-yl)amino]butyl}amide] | 1.81 ± 0.376 µM | 0.00152 ± 0.00055 µM | 1189
13 | CCCN(CCCCNC(=O)N1Cc2ccccc2C1)C1CCc2ncsc2C1 (stereo not drawn) [Compound 27, 1,3-Dihydro-isoindole-2-carboxylic acid {4-[propyl-(4,5,6,7-tetrahydro-benzothiazol-6-yl)-amino]-butyl}-amide] | 3.19 ± 1.47 µM | 0.00225 ± 0.00124 µM | 1422

Now from value to molecule:

Row | Ki [1] | Ki [2] | Selectivity Ki(D2)/Ki(D3) [2] | SMILES
14 | 1.68 ± 0.382 µM | 0.00226 ± 0.00079 µM | 746 | CCCN(CCCCNC(=O)c1ccccc1)C1CCc2ncsc2C1 (stereo not drawn) [Compound 1, N-{4-[Propyl-(4,5,6,7-tetrahydro-benzothiazol-6-yl)-amino]-butyl}-benzamide]
15 | 21 ± 2.55 µM | 0.147 ± 0.03 µM | 143 | O=C(NCCCCNC1CCc2ncsc2C1)c1ccc2ccccc2c1 (stereo not drawn) [Compound 2, Naphthalene-2-carboxylic acid [4-(4,5,6,7-tetrahydro-benzothiazol-6-ylamino)-butyl]-amide]
16 | 3.82 ± 1.1 µM | 0.0254 ± 0.0096 µM | 151 | CN(CCCCNC(=O)c1ccc2ccccc2c1)C1CCc2ncsc2C1 (stereo not drawn) [Compound 3, Naphthalene-2-carboxylic acid {4-[methyl-(4,5,6,7-tetrahydro-benzothiazol-6-yl)-amino]-butyl}-amide]
17 | 1.57 ± 0.303 µM | 0.0027 ± 0.00094 µM | 581 | CCN(CCCCNC(=O)c1ccc2ccccc2c1)C1CCc2ncsc2C1 (stereo not drawn) [Compound 4, Naphthalene-2-carboxylic acid {4-[ethyl-(4,5,6,7-tetrahydro-benzothiazol-6-yl)-amino]-butyl}-amide]
18 | 0.873 ± 0.388 µM | 0.00116 ± 0.00017 µM | 751 | CCCN(CCCCNC(=O)c1ccc2ccccc2c1)C1CCc2ncsc2C1 (stereo not drawn) [Compound 5, Naphthalene-2-carboxylic acid {4-[propyl-(4,5,6,7-tetrahydro-benzothiazol-6-yl)-amino]-butyl}-amide]
19 | 0.459 ± 0.083 µM | 0.00095 ± 0.0002 µM | 486 | C=CCN(CCCCNC(=O)c1ccc2ccccc2c1)C1CCc2ncsc2C1 (stereo not drawn) [Compound 6, Naphthalene-2-carboxylic acid {4-[allyl-(4,5,6,7-tetrahydro-benzothiazol-6-yl)-amino]-butyl}-amide]
20 | 9.08 ± 0.684 µM | 0.00776 ± 0.00137 µM | 1170 | C#CCN(CCCCNC(=O)c1ccc2ccccc2c1)C1CCc2ncsc2C1 (stereo not drawn) [Compound 7, Naphthalene-2-carboxylic acid {4-[prop-2-ynyl-(4,5,6,7-tetrahydro-benzothiazol-6-yl)-amino]-butyl}-amide]
21 | 8.37 ± 3.82 µM | 0.108 ± 0.04 µM | 77 | CC#CCN(CCCCNC(=O)c1ccc2ccccc2c1)C1CCc2ncsc2C1 (stereo not drawn) [Compound 8, Naphthalene-2-carboxylic acid {4-[but-2-ynyl-(4,5,6,7-tetrahydro-benzothiazol-6-yl)-amino]-butyl}-amide]
22 | 3.39 ± 0.388 µM | 0.0526 ± 0.0051 µM | 65 | CN(CCCCNC(=O)c1cc2ccccc2s1)C1CCc2ncsc2C1 (stereo not drawn) [Compound 11, Benzo[b]thiophene-2-carboxylic acid {4-[methyl-(4,5,6,7-tetrahydro-benzothiazol-6-yl)-amino]-butyl}-amide]
23 | 2.5 ± 0.463 µM | 0.00292 ± 0.00048 µM | 856 | CCN(CCCCNC(=O)c1cc2ccccc2s1)C1CCc2ncsc2C1 (stereo not drawn) [Compound 12, Benzo[b]thiophene-2-carboxylic acid {4-[ethyl-(4,5,6,7-tetrahydro-benzothiazol-6-yl)-amino]-butyl}-amide]
24 | 2.28 ± 0.105 µM | 0.016 ± 0.006 µM | 141 | CCCN(CCCCNC(=O)c1cc2ccccc2s1)C1CCc2ncsc2C1 (stereo not drawn) [Compound 13, Benzo[b]thiophene-2-carboxylic acid {4-[propyl-(4,5,6,7-tetrahydro-benzothiazol-6-yl)-amino]-butyl}-amide]
